Reference: ChEMBL document CHEMBL1123414, “Neurochemistry of aging. 1. Toxins for an animal model of Alzheimer's disease” (J Med Chem, 1986)

Key:
[1] = target: T1, High affinity choline transporter 1 (Mus musculus, UniProt Q8BGY9); assay: In vitro ability to inhibit the transport of [3H]choline in to high affinity choline transport system HAChT
T1 sequence (Q8BGY9 whole entry): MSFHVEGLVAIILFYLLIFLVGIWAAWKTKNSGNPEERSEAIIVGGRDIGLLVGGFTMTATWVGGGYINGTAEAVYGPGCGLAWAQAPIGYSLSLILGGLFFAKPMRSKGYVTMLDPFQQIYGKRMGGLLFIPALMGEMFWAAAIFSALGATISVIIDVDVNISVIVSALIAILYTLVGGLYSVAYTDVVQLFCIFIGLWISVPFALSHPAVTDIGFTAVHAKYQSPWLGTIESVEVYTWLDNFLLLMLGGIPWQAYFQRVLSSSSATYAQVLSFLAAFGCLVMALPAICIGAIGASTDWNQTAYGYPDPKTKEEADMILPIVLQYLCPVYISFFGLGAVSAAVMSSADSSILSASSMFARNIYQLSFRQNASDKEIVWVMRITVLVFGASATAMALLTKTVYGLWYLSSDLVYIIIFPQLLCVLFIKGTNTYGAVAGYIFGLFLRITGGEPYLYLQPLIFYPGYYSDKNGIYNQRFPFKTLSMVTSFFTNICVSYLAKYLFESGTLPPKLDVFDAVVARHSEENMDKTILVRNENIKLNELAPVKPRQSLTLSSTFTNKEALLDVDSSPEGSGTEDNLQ

[2] = target: Muscarinic acetylcholine receptor M3 (Rattus norvegicus) (UniProt P08483); assay: Compound was tested in vitro for its ability to displace [3H]-QNB from brain Muscarinic acetylcholine receptor
Muscarinic acetylcholine receptor M3 (Rattus norvegicus), sequence (P08483 whole entry, looked up): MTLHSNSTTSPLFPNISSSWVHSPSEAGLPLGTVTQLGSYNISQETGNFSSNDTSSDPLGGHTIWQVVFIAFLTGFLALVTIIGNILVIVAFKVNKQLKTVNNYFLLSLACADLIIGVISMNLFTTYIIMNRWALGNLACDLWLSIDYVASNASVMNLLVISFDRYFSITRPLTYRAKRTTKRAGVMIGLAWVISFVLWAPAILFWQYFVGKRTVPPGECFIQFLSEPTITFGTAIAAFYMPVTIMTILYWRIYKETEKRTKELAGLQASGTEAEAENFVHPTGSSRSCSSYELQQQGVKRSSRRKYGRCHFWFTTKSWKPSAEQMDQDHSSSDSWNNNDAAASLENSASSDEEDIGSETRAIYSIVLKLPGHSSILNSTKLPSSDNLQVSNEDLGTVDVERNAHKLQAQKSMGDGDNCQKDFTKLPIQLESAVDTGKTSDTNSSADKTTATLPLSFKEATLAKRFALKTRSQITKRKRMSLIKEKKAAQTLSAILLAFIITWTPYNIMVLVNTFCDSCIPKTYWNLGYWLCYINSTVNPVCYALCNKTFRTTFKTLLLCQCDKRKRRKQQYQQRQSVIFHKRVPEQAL

| SMILES | IC50 [1] [µM] | Displacement [2] [%] |
| --- | --- | --- |
| CC(C)C[N+]1(CCO)CC1 | 31 | 6 |
| CCC[N+]1(CCO)CC1 | 7.5 | 16 |
| CC[N+]1(CCO)CC1 | 1.5 | 18 |
| CCCC[N+]1(CCO)CC1 | > 1000 | 9 |
| C[N+](C)(C)CCO [CHOLINE] | 1.6 | – |
